Data published in patent publication US8415469B2, “Compounds and methods for kinase modulation, and indications therefor” (Plexxikon Inc., priority 2005, dated 2013).

Assays:
Assay type in all cases: biochemical
B-Raf = target: T1, B-Raf (Homo sapiens, UniProt P15056); experiment: AlphaScreen kinase assay, B-Raf; conditions: read-out: IC50, activity toward kinase B-Raf
T1 construct: purchased Upstate Biotechnology

B-Raf V600E = target: T2, B-Raf V600E (Homo sapiens, UniProt P15056, V600E); experiment: AlphaScreen kinase assay, B-Raf V600E; conditions: read-out: IC50, activity toward kinase B-Raf V600E
T2 construct: P4254. pFastBacBD-CDC37 BRAF D437-K722-X, V600E; His6 with pFastBac HT leader (TEV site) (N); made in house; host or cells: Sf9 (baculovirus; chaperone CDC37 co-expressed)
T2 sequence (P15056 with tags, fused parts or gaps V600E): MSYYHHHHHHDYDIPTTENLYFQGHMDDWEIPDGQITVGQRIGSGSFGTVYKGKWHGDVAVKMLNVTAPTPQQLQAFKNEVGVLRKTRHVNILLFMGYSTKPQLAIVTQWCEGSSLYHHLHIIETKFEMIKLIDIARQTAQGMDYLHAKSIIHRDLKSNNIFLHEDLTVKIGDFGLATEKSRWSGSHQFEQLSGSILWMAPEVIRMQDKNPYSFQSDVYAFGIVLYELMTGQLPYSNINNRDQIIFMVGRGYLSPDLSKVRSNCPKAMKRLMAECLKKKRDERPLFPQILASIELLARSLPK

Btk = target: T3, Btk (Homo sapiens, UniProt Q06187); experiment: Z'-Lyte FRET kinase assay (Invitrogen), Btk; conditions: read-out: IC50, activity toward kinase Btk
T3 construct: purchased Invitrogen (assay run by Invitrogen)

c-Raf-1 = target: T4, c-Raf-1 (Homo sapiens, UniProt P04049); experiment: AlphaScreen kinase assay, c-Raf-1; conditions: read-out: IC50, activity toward kinase c-Raf-1
T4 construct: purchased Upstate Biotechnology
T4 sequence (P04049 whole entry): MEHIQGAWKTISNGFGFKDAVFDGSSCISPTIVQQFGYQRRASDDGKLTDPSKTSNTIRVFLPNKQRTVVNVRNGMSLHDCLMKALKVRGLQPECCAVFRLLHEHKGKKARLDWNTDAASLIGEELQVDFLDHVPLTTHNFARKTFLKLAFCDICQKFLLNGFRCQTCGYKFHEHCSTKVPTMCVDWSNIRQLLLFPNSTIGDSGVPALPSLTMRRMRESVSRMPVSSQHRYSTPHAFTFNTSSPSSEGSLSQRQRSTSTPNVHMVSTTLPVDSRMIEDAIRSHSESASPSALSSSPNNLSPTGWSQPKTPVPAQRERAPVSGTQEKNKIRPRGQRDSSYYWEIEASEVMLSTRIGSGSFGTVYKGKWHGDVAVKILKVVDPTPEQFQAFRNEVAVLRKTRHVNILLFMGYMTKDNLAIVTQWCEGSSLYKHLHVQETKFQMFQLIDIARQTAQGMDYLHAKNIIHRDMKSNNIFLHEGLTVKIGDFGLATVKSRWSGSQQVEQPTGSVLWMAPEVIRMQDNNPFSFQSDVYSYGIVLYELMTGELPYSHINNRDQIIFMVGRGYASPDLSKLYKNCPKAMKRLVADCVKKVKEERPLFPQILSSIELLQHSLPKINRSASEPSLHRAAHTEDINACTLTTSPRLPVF

FGFR1 = target: T5, FGFR1 (Homo sapiens, UniProt P11362, C488A/C584S); experiment: AlphaScreen kinase assay, FGFR1; conditions: read-out: IC50, activity toward kinase FGFR
T5 construct: P1351.pET N6 BI-PTP FGFR A458-E765-X C488A, C584S; made in house; host or cells: E. coli (PTP1B co-expressed)
T5 sequence (P11362 458-765 C488A/C584S): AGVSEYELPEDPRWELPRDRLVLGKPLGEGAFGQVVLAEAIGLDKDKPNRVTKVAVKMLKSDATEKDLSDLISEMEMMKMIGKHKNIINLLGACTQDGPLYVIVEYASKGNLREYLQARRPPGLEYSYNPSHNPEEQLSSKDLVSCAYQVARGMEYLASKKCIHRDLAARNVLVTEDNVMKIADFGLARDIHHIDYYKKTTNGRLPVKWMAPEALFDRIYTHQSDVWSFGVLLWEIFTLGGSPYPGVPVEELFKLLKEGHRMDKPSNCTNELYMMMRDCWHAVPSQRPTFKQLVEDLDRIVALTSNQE

Fms = target: T6, Fms (Homo sapiens, UniProt P07333); experiment: AlphaScreen kinase assay, Fms; conditions: read-out: IC50, activity toward kinase Fms
T6 construct: purchased Upstate Biotechnology
T6 sequence (P07333 20-972): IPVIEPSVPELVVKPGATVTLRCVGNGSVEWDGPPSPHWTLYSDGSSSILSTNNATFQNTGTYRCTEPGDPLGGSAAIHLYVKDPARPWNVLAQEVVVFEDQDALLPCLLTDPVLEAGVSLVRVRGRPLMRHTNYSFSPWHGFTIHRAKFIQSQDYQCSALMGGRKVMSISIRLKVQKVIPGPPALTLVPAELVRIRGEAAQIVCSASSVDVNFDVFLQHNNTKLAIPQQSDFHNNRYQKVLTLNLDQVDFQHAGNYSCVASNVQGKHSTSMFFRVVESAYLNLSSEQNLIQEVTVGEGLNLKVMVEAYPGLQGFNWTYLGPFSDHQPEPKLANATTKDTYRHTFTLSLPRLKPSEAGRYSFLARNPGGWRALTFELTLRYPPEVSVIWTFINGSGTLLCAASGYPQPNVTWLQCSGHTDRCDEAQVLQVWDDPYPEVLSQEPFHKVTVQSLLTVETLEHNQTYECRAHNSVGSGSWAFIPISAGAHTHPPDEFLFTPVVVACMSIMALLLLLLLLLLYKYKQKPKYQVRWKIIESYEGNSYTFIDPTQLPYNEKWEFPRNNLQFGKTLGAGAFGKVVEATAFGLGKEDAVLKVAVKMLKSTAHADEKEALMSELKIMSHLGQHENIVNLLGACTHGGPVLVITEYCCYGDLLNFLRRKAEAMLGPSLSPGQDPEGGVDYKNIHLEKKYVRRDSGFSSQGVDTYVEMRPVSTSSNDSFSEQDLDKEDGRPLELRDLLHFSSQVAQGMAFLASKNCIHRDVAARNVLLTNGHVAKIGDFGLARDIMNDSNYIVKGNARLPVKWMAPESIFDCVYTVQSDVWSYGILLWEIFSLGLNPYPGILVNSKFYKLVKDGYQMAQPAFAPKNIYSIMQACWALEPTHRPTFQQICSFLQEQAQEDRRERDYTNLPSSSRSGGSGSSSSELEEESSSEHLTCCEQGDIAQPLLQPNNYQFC

Jnk1 = target: T7, Jnk1 (Homo sapiens, UniProt P45983); experiment: AlphaScreen kinase assay, Jnk1; conditions: read-out: IC50, activity toward kinase Jnk1
T7 construct: purchased Upstate Biotechnology

Jnk2 = target: T8, Jnk2 (Homo sapiens, UniProt P45984); experiment: AlphaScreen kinase assay, Jnk2; conditions: read-out: IC50, activity toward kinase Jnk2
T8 construct: purchased Roche Protein Expression Group (Indianapolis, IN)
T8 sequence (P45984 whole entry): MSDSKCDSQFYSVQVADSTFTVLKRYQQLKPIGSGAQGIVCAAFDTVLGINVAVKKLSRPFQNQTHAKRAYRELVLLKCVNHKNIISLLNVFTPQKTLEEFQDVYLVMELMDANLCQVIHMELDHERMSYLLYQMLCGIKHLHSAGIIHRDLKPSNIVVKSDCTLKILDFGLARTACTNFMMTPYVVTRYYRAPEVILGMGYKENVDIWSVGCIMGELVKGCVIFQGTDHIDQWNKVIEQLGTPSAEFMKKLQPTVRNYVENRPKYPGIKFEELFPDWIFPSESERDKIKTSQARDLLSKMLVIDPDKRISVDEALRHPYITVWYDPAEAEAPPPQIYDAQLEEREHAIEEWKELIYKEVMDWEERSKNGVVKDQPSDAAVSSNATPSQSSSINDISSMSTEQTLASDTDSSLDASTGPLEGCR
Method in brief: (§1)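 Bead-proximity format: phosphopeptide links anti-phospho antibody acceptor beads to streptavidin donor beads via biotin tag. Compounds were serially diluted 1:3 (8 points) from 20 mM stocks in DMSO.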

Ret = target: T9, Ret (Homo sapiens, UniProt P07949); experiment: AlphaScreen kinase assay, Ret; conditions: read-out: IC50, activity toward kinase Ret
T9 construct: P1378.pET-SF BI-PTP RET H661-R1012 HIS; made in house
T9 sequence (P07949 with tags, fused parts or gaps): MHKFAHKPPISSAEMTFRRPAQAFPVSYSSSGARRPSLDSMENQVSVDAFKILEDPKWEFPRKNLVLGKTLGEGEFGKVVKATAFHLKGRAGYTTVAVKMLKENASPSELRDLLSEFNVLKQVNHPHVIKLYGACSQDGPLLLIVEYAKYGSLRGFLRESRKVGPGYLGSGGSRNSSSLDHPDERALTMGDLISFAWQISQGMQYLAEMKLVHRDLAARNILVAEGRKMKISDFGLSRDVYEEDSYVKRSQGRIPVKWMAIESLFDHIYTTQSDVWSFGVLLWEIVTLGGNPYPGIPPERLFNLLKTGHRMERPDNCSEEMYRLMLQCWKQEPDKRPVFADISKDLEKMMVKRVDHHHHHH
Protocol: (§2) AlphaScreen assays were done using compounds dissolved in DMSO to a concentration of 20 mM. The compounds were diluted accordingly to the desired final concentrations in each sample well, using 1:3 serial dilution for a total of 8 concentration points. Plates were prepared such that each kinase reaction is 20 μl in 1× kinase buffer, 5% DMSO and 10 μM ATP. After incubation of the kinase reaction for 1 hour at room temperature, 5 μl of donor beads in stop buffer (50 mM EDTA in 1× kinase buffer) was added, the sample was mixed and incubated for 20 minutes at room temperature before adding 5 μl of acceptor beads in stop buffer. The samples were incubated for 60 minutes at room temperature and the signal per well was read on AlphaQuest reader.

TEC = target: T10, TEC (Homo sapiens, UniProt P42680); experiment: AlphaScreen kinase assay, TEC; conditions: read-out: IC50, activity toward kinase TEC
T10 sequence (P42680 1-631): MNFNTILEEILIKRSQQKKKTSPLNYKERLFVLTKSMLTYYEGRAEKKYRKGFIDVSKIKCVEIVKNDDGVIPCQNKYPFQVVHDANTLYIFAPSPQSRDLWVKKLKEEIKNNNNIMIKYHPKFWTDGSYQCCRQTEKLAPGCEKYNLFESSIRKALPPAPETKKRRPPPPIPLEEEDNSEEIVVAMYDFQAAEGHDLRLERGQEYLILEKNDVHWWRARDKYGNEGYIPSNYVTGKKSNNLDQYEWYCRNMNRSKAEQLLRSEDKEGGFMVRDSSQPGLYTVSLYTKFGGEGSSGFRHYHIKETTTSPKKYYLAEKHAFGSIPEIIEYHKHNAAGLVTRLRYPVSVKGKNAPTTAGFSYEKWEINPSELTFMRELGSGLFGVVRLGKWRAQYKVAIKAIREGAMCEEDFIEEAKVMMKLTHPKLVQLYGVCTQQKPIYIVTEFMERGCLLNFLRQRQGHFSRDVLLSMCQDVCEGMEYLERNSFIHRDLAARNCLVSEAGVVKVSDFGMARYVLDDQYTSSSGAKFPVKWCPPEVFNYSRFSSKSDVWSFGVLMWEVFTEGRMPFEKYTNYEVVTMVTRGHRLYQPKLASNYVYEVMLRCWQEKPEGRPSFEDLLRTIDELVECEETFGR
Excerpt: AlphaScreen assay was used to screen additional kinases. The assay is similarly dependent on the phosphorylation of a peptide substrate. In this assay, an antibody that recognizes phosphorylated substrate is bound to an acceptor bead. The peptide substrate is attached to biotin, which binds to a donor head that contains streptavidin. Thus phosphorylated substrate is bound by antibody and streptavidin, bringing the donor and acceptor heads into close proximity when kinase is not inhibited. The donor produces singlet oxygen which results in emission from the acceptor when they are in close proximity. Conversely, when kinase is inhibited, the donor and acceptor beads are not associated and the emission from the acceptor is reduced.
AlphaScreen assays were done using compounds dissolved in DMSO to a concentration of 20 mM. The compounds were diluted accordingly to the desired final concentrations in each sample well, using 1:3 serial dilution for a total of 8 concentration points.

Met = target: T11, Met (Homo sapiens, UniProt P08581); experiment: AlphaScreen kinase assay, Met; conditions: read-out: IC50, activity toward kinase Met
T11 construct: P1818.pETN6 BI-PTP MET G1056-G1364-X WT; His6 (N); made in house; host or cells: E. coli (PTP1B co-expressed)
Method in brief: as §1

Jnk3 = target: T12, Jnk3 (Homo sapiens, UniProt P53779); experiment: AlphaScreen kinase assay, Jnk3; conditions: read-out: IC50, activity toward kinase Jnk3
T12 construct: purchased Upstate Biotechnology
T12 sequence (P53779 whole entry): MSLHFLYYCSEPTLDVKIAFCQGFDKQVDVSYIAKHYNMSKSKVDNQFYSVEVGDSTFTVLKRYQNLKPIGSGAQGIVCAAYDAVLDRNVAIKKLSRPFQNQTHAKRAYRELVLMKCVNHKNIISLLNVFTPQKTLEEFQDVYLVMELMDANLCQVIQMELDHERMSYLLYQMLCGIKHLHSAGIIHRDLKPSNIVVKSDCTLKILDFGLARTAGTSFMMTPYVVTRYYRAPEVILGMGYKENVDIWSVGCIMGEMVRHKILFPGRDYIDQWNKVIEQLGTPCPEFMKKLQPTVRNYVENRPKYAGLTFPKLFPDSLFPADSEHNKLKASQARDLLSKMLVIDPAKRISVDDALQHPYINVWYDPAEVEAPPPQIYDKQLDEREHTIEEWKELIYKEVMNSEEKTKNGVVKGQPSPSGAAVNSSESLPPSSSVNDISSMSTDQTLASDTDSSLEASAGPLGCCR

Pyk2 = target: T13, Pyk2 (Homo sapiens, UniProt Q14289); experiment: AlphaScreen kinase assay, Pyk2; conditions: read-out: IC50, activity toward kinase Pyk2
T13 construct: purchased Upstate Biotechnology
T13 sequence (Q14289 whole entry): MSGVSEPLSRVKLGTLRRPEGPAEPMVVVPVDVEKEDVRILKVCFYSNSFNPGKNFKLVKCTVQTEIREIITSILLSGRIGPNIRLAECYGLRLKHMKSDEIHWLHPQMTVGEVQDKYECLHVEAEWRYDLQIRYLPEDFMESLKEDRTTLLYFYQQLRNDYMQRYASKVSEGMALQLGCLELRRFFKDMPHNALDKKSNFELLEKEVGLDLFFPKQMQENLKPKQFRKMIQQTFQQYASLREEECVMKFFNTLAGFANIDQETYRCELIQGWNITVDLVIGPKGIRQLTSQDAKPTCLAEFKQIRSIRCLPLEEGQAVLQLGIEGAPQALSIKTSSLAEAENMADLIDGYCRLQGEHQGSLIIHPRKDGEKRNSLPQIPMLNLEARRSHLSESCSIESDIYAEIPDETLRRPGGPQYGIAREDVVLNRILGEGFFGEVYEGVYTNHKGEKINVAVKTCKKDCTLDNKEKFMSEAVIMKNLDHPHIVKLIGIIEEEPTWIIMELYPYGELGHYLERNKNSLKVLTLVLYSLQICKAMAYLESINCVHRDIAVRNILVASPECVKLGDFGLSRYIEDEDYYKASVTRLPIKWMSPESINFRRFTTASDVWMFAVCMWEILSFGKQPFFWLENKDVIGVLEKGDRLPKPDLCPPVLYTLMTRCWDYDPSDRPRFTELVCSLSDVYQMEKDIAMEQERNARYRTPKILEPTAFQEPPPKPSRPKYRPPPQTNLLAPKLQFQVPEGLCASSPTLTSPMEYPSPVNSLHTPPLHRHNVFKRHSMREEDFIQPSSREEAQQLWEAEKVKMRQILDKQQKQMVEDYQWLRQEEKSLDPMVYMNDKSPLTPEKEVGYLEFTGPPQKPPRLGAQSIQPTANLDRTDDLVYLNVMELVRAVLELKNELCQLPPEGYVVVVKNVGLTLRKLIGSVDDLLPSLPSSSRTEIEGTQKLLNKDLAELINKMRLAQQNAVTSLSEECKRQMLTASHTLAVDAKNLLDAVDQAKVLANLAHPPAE
Protocol: as §2

Zap70 = target: T14, Zap70 (Homo sapiens, UniProt P43403); experiment: AlphaScreen kinase assay, Zap70; conditions: read-out: IC50, activity toward kinase Zap70
T14 construct: P1868.pFastBac1 ZAP70 D327-G606 HIS, WT; His7 (HHHHHHH) (C); made in house
T14 sequence (P43403 with tags, fused parts or gaps): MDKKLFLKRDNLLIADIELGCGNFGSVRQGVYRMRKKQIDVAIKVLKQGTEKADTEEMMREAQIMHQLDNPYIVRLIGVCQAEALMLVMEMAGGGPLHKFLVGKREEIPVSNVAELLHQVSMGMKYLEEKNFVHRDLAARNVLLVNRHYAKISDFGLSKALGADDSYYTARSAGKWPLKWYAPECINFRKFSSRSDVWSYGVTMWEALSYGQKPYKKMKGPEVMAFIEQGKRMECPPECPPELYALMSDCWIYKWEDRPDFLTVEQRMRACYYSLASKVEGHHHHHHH
Method in brief: as §1

Fak = target: T15, Fak (Homo sapiens, UniProt Q05397); experiment: AlphaScreen kinase assay, Fak; conditions: read-out: IC50, activity toward kinase Fak
T15 construct: P1358.pFastBacHtb FAK S411-Q686-X; His6 with pFastBacHTb leader (TEV site) (N); made in house; host or cells: Sf9 (baculovirus)

Kit = target: T16, Kit (Homo sapiens, UniProt P10721); experiment: AlphaScreen kinase assay, Kit; conditions: read-out: IC50, activity toward kinase Kit
T16 construct: P1332.N6 BI PTP KIT M552-K948-X COD; His6 (N); made in house; host or cells: E. coli (PTP1B co-expressed)

Src = target: T17, Src (Homo sapiens, UniProt P12931); experiment: AlphaScreen kinase assay, Src; conditions: read-out: IC50, activity toward kinase Src
T17 construct: P1144. pET-N6 BI-PTP SRC V86-L536-X; made in house

Measured: IC50

T1 sequence (P15056 whole entry): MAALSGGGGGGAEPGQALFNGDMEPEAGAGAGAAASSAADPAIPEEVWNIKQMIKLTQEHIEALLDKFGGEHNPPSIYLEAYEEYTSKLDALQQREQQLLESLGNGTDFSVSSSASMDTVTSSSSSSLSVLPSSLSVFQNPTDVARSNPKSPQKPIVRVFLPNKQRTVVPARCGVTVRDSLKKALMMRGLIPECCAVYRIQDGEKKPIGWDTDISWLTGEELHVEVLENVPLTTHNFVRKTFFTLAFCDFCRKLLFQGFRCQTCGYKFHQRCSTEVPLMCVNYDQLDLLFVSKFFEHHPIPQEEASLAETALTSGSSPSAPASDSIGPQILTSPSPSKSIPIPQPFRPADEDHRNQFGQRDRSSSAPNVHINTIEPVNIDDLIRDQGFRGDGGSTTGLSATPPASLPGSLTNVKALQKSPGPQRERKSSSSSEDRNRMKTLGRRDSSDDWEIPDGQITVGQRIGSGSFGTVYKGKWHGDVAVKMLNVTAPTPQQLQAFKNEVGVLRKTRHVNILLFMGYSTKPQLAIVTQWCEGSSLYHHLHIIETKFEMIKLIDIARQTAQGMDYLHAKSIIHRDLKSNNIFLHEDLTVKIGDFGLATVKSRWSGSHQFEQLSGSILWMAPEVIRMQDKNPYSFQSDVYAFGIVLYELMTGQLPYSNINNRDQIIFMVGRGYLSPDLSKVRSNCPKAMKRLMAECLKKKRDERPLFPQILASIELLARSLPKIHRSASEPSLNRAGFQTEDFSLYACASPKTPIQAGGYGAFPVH

CS(=O)(=O)Nc1ccc(F)c(C(=O)c2c[nH]c3ncc(-c4cccc(S(C)(=O)=O)c4)cc23)c1 [Compound P-0297, N-{4-Fluoro-3-[5-(3-methanesulfonyl-phenyl)-1H-pyrrolo[2,3-b]pyridine-3-carbonyl]-phenyl}-methanesulfonamide]
not listed: Met | Jnk3 | Pyk2 | Zap70 | Fak | Kit | Src
≤ 10 µM: all other assays above

CS(=O)(=O)Nc1cccc(-c2cnc3[nH]cc(C(=O)c4cc(NS(C)(=O)=O)ccc4F)c3c2)c1 [Compound P-0156, N-{4-Fluoro-3-[5-(3-methanesulfonylamino-phenyl)-1H-pyrrolo[2,3-b]pyridine-3-carbonyl]-phenyl}-methanesulfonamide]
≤ 10 µM: B-Raf V600E | Btk | c-Raf-1 | FGFR1 | Jnk1 | Jnk2 | Met | Ret | TEC

C=C(C)c1cnc2[nH]cc(C(=O)c3c(F)ccc(NS(=O)(=O)CCC)c3F)c2c1 [Compound P-0991, Propane-1-sulfonic acid [2,4-difluoro-3-(5-isopropenyl-1H-pyrrolo[2,3-b]pyridine-3-carbonyl)-phenyl]-amide]
≤ 10 µM: B-Raf | B-Raf V600E | Btk | c-Raf-1 | FGFR1 | Jnk1 | Jnk3 | Pyk2 | TEC

CS(=O)(=O)Nc1ccc(F)c(C(=O)c2c[nH]c3ncc(-c4cccc(C(N)=O)c4)cc23)c1 [Compound P-0228, 3-[3-(2-Fluoro-5-methanesulfonylamino-benzoyl)-1H-pyrrolo[2,3-b]pyridin-5-yl]-benzamide]
not listed: Pyk2 | Fak | Kit | Src
≤ 10 µM: all other assays above

COC(=O)Nc1ccc(F)c(Cc2c[nH]c3ncc(-c4cccnc4)cc23)c1F [Compound P-0257, [2,4-Difluoro-3-(5-pyridin-3-yl-1H-pyrrolo[2,3-b]pyridin-3-ylmethyl)-phenyl]-carbamic acid methyl ester]
not listed: Jnk2 | Met | Zap70 | Src
≤ 10 µM: all other assays above

CCCS(=O)(=O)Nc1cccc(C(=O)c2c[nH]c3ncc(-c4ccccc4)cc23)c1F [Compound P-0897, Propane-1-sulfonic acid [2-fluoro-3-(5-phenyl-1H-pyrrolo[2,3-b]pyridine-3-carbonyl)-phenyl]-amide]
≤ 10 µM: B-Raf | B-Raf V600E | Btk | c-Raf-1 | FGFR1 | Jnk1 | Pyk2 | TEC

CCCS(=O)(=O)Nc1ccc(F)c(C(=O)c2c[nH]c3ncc(C(C)C)cc23)c1F [Compound P-0997]
≤ 10 µM: B-Raf | B-Raf V600E | Btk | c-Raf-1 | FGFR1 | Jnk1 | Pyk2 | Src | TEC

O=C(NCc1ccc(CCc2c[nH]c3ncccc23)cc1)Nc1ccccc1 [Compound P-0429]
≤ 10 µM: Btk | TEC
